Laboratory results published in patent US20030096379A1, “Method for producing tryptamine derivatives” (priority 2001, published 2003).
Marks after values point to notes of the source that are not given here.

Legend:
[1] = system: TrpBA and TDC1; test: Coupled enzyme synthesis monitored by HPLC; assay type: biochemical; conditions: L-serine, PLP, pH 8.5 phosphate buffer, 37° C.
Experimental: To a solution containing L-serine (25 μmol), pyridoxal phosphate (0.05 μmol) and TrpBA (0.02 to 1.5 units, depending on the substrate), TDC1 (0.2 mL 0.6 units) and KPi buffer (0.05 mmol, pH 7.5) in a volume of 0.8 mL were added […] of 5 mM indole derivative in 20% v/v ethanol/water. The mixture was incubated at 37° C. and aliquots were quenched and analyzed as described for Example 8. In cases where tryptamine and/or tryptophan standards were not available, peaks were collected for mass spectral analysis. Electrospray mass spectral analyses were performed.
Mixtures containing indole, L-serine, PLP and TDC1 were incubated in pH 8.5 phosphate buffer, analyzing aliquots by HPLC, as described in Example 12.
The procedure used in Example 24 was carried out by substituting indole with 2-methylindole, 4-hydroxymethylindole, 5-methoxy-, 5-hydroxymethyl-, 5-methoxycarbonyl, and 5,6-dimethoxyindole.

[2] = target: T1, tryptophan decarboxylase TDC1 (Camptotheca acuminata, UniProt P93082); test: Substrate screen for tryptophan decarboxylation, TDC1; assay type: biochemical, C. accuminata; set-up: key: +: a clear ninhydrin-positive spot at the Rf of standard tryptophan derivatives after 16-65 h; (+): a weak spot in the product region; −: no product observed; NR: experiment not run; conditions: tryptophan derivative, PLP, pH 7.5, 37° C.
T1 construct: made in house; host or cells: E. coli DH5α (pKK233 plasmid from C. Nessler)
T1 sequence (P93082 1-502): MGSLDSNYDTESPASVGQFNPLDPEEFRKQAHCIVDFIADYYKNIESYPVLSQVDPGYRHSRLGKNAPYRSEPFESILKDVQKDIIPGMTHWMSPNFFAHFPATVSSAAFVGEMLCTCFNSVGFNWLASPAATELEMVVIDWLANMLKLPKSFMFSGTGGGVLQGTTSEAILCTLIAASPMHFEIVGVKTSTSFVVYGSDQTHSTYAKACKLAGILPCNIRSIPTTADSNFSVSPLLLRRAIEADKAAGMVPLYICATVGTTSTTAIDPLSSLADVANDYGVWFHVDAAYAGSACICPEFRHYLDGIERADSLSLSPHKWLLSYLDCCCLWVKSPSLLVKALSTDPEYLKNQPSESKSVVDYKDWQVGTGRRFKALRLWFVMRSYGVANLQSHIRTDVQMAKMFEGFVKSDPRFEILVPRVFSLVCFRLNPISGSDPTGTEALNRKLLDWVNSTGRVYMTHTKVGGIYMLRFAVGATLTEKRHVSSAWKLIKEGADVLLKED
Experimental: (§1) A mixture containing 1 μmole of the tryptophan derivative, 0.05 μmole of PLP and 50 μmol of L-serine in 40 mM pH 7.5 KPi buffer was warmed to 37° C., then enzyme solution was added to give a final volume of 1 mL. Aliquots (100 HL) were quenched at intervals and were evaporated in a Savant Speed-vac as in Example 6. For TLC analysis, CH2Cl2/EtOH/H2O/HOAc 49:49:1:1 was used as the solvent. The plates were visualized with short-wave UV light and ninhydrin as in Example 6.
(§2) HPLC techniques were used to monitor the decarboxylation of substituted tryptophans. Mass spectral analysis of the collected HPLC peaks was used to confirm the identity of several tryptamine derivatives, as shown in Table 5.

[3] = target: T2, tryptophan decarboxylase TDC2 (Camptotheca acuminata, UniProt P93083); test: Substrate screen for tryptophan decarboxylation, TDC2; assay type: biochemical, C. accuminata; set-up: key: +: a clear ninhydrin-positive spot at the Rf of standard tryptophan derivatives after 16-65 h; (+): a weak spot in the product region; −: no product observed; NR: experiment not run; conditions: tryptophan derivative, PLP, pH 7.5, 37° C.
T2 construct: made in house; host or cells: E. coli DH5α (pKK233 plasmid from C. Nessler)
T2 sequence (P93083 1-498): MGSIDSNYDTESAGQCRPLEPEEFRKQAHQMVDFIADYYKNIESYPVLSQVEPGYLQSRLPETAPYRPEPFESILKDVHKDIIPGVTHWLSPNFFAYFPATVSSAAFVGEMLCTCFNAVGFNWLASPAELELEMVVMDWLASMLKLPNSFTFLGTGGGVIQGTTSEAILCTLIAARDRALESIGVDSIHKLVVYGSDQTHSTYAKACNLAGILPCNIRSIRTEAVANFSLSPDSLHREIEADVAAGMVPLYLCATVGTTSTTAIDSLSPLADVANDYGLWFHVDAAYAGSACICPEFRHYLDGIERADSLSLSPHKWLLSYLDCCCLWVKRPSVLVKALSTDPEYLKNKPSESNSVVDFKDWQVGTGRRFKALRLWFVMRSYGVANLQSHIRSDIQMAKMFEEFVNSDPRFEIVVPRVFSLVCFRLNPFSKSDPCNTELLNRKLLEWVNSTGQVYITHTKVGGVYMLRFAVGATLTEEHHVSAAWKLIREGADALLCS
Experimental: as §1, §2

[4] = target: T3, synAAAD (synthetic gene based on pkAAAD protein sequence) (Sus scrofa, UniProt P80041); test: Substrate screen for tryptophan decarboxylation, SynAAAD; assay type: biochemical; set-up: key: +: a clear ninhydrin-positive spot at the Rf of standard tryptophan derivatives after 16-65 h; (+): a weak spot in the product region; −: no product observed; NR: experiment not run; conditions: tryptophan derivative, PLP, pH 7.5, 37° C.
T3 construct: made in house; host or cells: E. coli (pET-15 vector)
T3 sequence (P80041 1-486): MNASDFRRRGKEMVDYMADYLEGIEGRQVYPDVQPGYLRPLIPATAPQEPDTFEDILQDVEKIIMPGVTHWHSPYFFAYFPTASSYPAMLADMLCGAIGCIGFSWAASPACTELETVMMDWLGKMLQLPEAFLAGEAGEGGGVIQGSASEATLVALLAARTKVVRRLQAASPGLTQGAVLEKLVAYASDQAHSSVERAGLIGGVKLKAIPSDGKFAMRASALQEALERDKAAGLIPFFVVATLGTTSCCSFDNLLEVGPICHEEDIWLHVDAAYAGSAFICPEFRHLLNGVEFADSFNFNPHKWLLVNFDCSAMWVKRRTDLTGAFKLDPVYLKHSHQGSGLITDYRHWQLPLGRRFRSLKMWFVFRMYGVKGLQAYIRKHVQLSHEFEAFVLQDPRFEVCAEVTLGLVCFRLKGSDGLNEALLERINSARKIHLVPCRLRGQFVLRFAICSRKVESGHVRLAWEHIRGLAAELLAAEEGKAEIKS
Experimental: as §1, §2

[5] = target: T4, pig kidney aromatic amino acid decarboxylase (pkAAAD) (Sus scrofa, UniProt P80041); test: Substrate screen for tryptophan decarboxylation, pkAAAD; assay type: biochemical; set-up: key: +: a clear ninhydrin-positive spot at the Rf of standard tryptophan derivatives after 16-65 h; (+): a weak spot in the product region; −: no product observed; NR: experiment not run; conditions: tryptophan derivative, PLP, pH 7.5, 37° C.
T4 construct: Frozen tissue was partially thawed in lysis buffer, then it was extracted and partially purified; from tissue; host or cells: pig kidney
T4 sequence (P80041 1-486): T3 sequence (P80041 1-486)

[6] = target: T5, E. coli DH5α tryptophan synthase (TrpBA) (Escherichia coli, UniProt P0A879); assay type: biochemical; set-up: key: +: a clear ninhydrin-positive spot at the Rf of standard tryptophan derivatives after 16-65 h; (+): a weak spot in the product region; −: no product observed; NR: experiment not run; conditions: indole derivative + L-serine + PLP, 37° C., 16-65 h, ninhydrin
T5 construct: made in house; host or cells: E. coli LMG194 (pBAD) or BL-21 (pET)
Experimental: (§3) A mixture containing 2 μmole of the indole derivative, 0.05 μmole of PLP and 50 μmol of L-serine in 40 mM KPi buffer in 8% v/v ethanol water, pH 7.5, was warmed to 37° C., then enzyme solution was added to give a final volume of 1 mL. Aliquots (100 μL) were quenched at intervals of 2, 6, and 24 hours or more in microcentrifuge capsules containing 25 μL of 6 M HCl. The quenched samples were evaporated in a Savant Speed-vac. The residues were resuspended in methanol/water (1:1, 50 μL) and analyzed by TLC on Silica gel GF254 plates alongside tryptophan and tryptamine standards, eluting with CH2Cl2/EtOH/H2O/HOAc 77:20:2:1. Products were visualized first by using short-wave UV light, then with ninhydrin spray reagent (1/1/98 w/v/v ninhydrin/HOAc/EtOH) followed by heating.
(§4) Substituted indoles were incubated with L-serine, PLP and enzyme (TrpBA or TnA) prior to TLC analysis as generally described in Example 6. Serine, which can be used instead of pyruvate and ammonia for tryptophan synthesis with TnA, was employed as the 3-carbon acid because pyruvate tended to obscure the tryptophan product spots when plates were visualized with ninhydrin. TnA-catalyzed formation of tryptophan was also faster when serine was the 3-carbon donor. Reaction rates for several substrates were also estimated by HPLC.
(§5) In Table 4, “+” indicates a clear ninhydrin-positive spot at the Rf of standard tryptophan derivatives after 16-65 h; “(+)” indicates a weak spot in the product region; “−” means no product observed, “NR” means experiment not run. ESMS=electrospray mass spectrometry. Unless otherwise indicated, the mass value given represents the singly-protonated molecular ion (M+1).

[7] = target: T6, tryptophanase (TnA) (Escherichia coli, UniProt P0A853); assay type: biochemical, E. coli; set-up: key: +: a clear ninhydrin-positive spot at the Rf of standard tryptophan derivatives after 16-65 h; (+): a weak spot in the product region; −: no product observed; NR: experiment not run; conditions: indole derivative + L-serine + PLP, 37° C., 16-65 h, ninhydrin
T6 construct: made in house; host or cells: E. coli LMG194 (pBAD) or BL-21 (pET)
Experimental: as §3, §4, §5

[8] = target: T7, TrpBA (Escherichia coli, UniProt P0A879); test: Relative rates of tryptophan derivative synthesis by HPLC, TrpBA; assay type: biochemical, E. coli; conditions: initial rate estimated by HPLC, indole = 100%, L-serine
T7 construct: made in house; host or cells: E. coli LMG194 (pBAD) or BL-21 (pET)
Experimental: Reaction mixtures were prepared as in Example 6 and were incubated at 37° C. Aliquots (100 μL) were removed and quenched by addition of to 300 μL of 0.5 M sodium citrate, pH 3.0 in 10% v/v acetonitrile/water in 2 ml microcentrifuge tubes. Following centrifugation for 10 min at 13,000×g, the supernatants were passed through 0.45μ membrane filters prior to HPLC analysis of 20 μL of filtrate.
TnA reactions were run with L-serine as the 3-carbon substrate.

T7 sequence (P0A879 whole entry): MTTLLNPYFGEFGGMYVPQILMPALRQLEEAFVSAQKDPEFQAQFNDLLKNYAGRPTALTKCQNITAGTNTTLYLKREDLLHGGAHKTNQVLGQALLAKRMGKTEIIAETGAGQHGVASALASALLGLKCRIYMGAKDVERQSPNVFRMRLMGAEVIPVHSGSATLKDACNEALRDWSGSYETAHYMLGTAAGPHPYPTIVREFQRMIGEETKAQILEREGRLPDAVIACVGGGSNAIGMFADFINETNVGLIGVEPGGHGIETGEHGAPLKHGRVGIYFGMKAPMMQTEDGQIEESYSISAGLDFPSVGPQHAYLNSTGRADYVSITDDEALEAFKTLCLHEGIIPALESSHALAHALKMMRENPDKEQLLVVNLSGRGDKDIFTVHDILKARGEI
T7 sequence (P0A877 whole entry, further chain): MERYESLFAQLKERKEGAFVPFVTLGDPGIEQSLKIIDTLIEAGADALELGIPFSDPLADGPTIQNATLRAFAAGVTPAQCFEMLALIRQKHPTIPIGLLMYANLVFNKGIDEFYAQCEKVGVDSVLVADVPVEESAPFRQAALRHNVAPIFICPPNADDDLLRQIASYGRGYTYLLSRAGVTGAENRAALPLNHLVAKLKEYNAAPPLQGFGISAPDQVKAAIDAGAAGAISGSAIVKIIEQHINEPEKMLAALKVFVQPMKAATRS
T6 sequence (P0A853 whole entry): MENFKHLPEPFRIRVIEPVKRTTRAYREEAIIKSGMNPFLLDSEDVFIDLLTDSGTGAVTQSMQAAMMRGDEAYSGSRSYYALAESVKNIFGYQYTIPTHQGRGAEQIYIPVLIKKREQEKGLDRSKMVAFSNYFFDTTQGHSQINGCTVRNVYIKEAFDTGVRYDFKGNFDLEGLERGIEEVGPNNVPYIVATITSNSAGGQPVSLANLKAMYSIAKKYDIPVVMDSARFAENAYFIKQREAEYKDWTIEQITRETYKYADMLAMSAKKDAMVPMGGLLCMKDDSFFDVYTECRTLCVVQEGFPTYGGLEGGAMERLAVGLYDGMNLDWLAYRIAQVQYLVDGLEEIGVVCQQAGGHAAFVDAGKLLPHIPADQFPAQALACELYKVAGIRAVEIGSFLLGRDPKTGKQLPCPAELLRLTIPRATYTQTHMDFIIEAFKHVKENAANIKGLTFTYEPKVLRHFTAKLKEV
T5 sequence (P0A879 whole entry): as the sequence (P0A879 whole entry) above
T5 sequence (P0A877 whole entry, further chain): as the sequence (P0A877 whole entry, further chain) above

Molecule | formation of tryptophan derivative and tryptamine (HPLC peaks) [1] | TDC1 (decarboxylation substrate screen) [2] | TDC2 (decarboxylation substrate screen) [3] | SynAAAD (decarboxylation substrate screen) [4] | pkAAAD (decarboxylation substrate screen) [5] | TrpBA (tryptophan product spot, TLC analysis) [6] | TnA (tryptophan product spot, TLC analysis) [7] | Relative rate (TrpBA) [8]
5-(Methoxycarbonylamino)indole [5-(methoxycarbonyl)amino-] | a second peak representing formation of tryptamine |  |  |  |  |  |  | 
NC(Cc1c[nH]c2cccc(F)c12)C(=O)O (racemic) [DL-4-fluoro-trp] |  | + | + | (+) | + |  |  | 
Cc1cccc2[nH]cc(CC(N)C(=O)O)c12 (racemic) [DL-4-methyl-trp] |  | + | + | + | − |  |  | 
NC(Cc1c[nH]c2ccc(F)cc12)C(=O)O (racemic) [DL-5-fluoro-trp] |  | + | (+) | (+) | − |  |  | 
Cc1ccc2[nH]cc(CC(N)C(=O)O)c2c1 (racemic) [DL-5-methyl-trp] |  | + | + | − | − |  |  | 
NC(Cc1c[nH]c2cc(F)ccc12)C(=O)O (racemic) [DL-6-fluoro-trp] |  | − | − | − | − |  |  | 
Cc1ccc2c(CC(N)C(=O)O)c[nH]c2c1 (racemic) [DL-6-methyl-trp] |  | + | + | (+) | − |  |  | 
Cc1cccc2c(CC(N)C(=O)O)c[nH]c12 (racemic) [DL-7-methyl-trp] |  | + | + | (+) | − |  |  | 
Cc1cc2ccccc2[nH]1 [2-methyl-, 2-methylindole] | a second peak representing formation of tryptamine |  |  |  |  | − | + | 20.6* %
COc1ccc2[nH]ccc2c1 [5-methoxy-] | a second peak representing formation of tryptamine |  |  |  |  | + | + | 19.0%
Cc1ccc2[nH]ccc2c1 [5CH3] |  |  |  |  |  |  |  | 0.55%
N[C@@H](Cc1c[nH]c2cccc(CO)c12)C(=O)O [L-4-(hydroxymethyl)-trp, 4-(Hydroxymethyl)-L-tryptophan] |  | + | + | + | (+) |  |  | 
COC(=O)Nc1ccc2[nH]cc(C[C@H](N)C(=O)O)c2c1 [L-5-(methoxycarbonyl)-amino-trp, 5-(Methoxycarbonyl)amino-L-tryptophan] |  | + | + | + | − |  |  | 
N[C@@H](Cc1c[nH]c2ccc(O)cc12)C(=O)O [L-5-hydroxy-trp, L-5-hydroxytryptophan, reference compound] |  | + |  | + | + |  |  | 
